Patent US20180118718A1, “Substituted Quinoxaline Derivatives” (Selvita S.A., priority 2015, published 2018)

Biological target: T1, Human recombinant His-tagged PFKFB3 (Homo sapiens, UniProt Q16875)
T1 construct: His; made in house
Experiment: PFKFB3 IC50 Determination Assay (in vitro kinase assay, modified ADP-Glo system)
Format: biochemical
Details: ATP 20 μM and fructose-6-phosphate 2 μM (Km), 25 nM PFKFB3, 2 h, rt, ADP-Glo luminescence
Procedure: PFKFB3 IC50 Determination Assay
In vitro kinase assay used to determine IC50 values for tested inhibitors is based on a modified ADP-Glo™ system (Promega) and consists of two parts:
1. Kinase reaction—performed in optimized conditions. At this step PFKFB3 phosphorylates its substrate Fructose-6-phosphate using ATP as a source of phosphate to produce Fructose-2,6-bisphosphate and ADP. Reaction is performed at Km values for ATP and substrate using optimized buffer composition and time of the reaction. Human recombinant His-tagged PFKFB3 (PFKFB3 BATCH II SEC) with confirmed activity is produced and purified in-house. 2. Detection of ADP as a product of the reaction using ADP-Glo™ system. This part is conducted by using the commercially available kit ADP-Glo™ Kinase Assay (Promega, cat. No# V9103) according to manufacturer's instruction, modified by 5x dilutions of assay reagents (both ADP-Glo™ Reagent and Kinase Detection Solution).
Test compounds are dissolved in DMSO and then transferred to the V-bottom 96-well plate.
15 μL per well of Mix 1 is transferred to assay wells of 96-well white plate. […] Total reaction volume is 30 μL per well. Samples are tested in duplicates. Final concentration of DMSO in the reaction is 6.7%. Conditions needed for performing PFKFB3 (PFKFB3 BATCH II SEC) in vitro kinase assay are given below:
This protocol is based on Technical Bulletin, ADP-Glo™ Kinase Assay (Promega) and is adapted to 96-well plate containing 30 μL reaction mixture:
30 μL of 5x diluted ADP-Glo™ Reagent is added to each well of 96-well plate containing 30 μL of reaction mixture. The plate is incubated for 90 minutes on a shaker at RT. 60 μL of 5x diluted Kinase Detection Solution is added to each well of 96-well plate containing 60 μL of the solution (ratio of kinase reaction volume to ADP-Glo™ Reagent volume to Kinase Detection Solution volume is maintained at 1:1:2). Plate is incubated for 40 minutes on a shaker at RT, protected from light. Luminescence is measured in the plate reader Synergy 2 (BioTek).
Luminescent readouts for compounds tested in 10 concentrations (routinely from 100 μM to […], […] serial dilutions) in duplicates, as well as for positive control, are first normalized to no-substrate negative control by its subtraction. In the next step, % of normalized positive control is calculated for each data point and plotted against test compound concentration:
% of control percent of positive control normalized to no-substrate negative control Lumcpd luminescence of test compound Lumneg luminescence of no-substrate negative control Lumpos luminescence of positive control
IC50 parameter is determined by the GraphPad Prism 5.0 software [log(inhibitor) vs. response −Variable slope (four parameters)].

T1 sequence (Q16875 whole entry): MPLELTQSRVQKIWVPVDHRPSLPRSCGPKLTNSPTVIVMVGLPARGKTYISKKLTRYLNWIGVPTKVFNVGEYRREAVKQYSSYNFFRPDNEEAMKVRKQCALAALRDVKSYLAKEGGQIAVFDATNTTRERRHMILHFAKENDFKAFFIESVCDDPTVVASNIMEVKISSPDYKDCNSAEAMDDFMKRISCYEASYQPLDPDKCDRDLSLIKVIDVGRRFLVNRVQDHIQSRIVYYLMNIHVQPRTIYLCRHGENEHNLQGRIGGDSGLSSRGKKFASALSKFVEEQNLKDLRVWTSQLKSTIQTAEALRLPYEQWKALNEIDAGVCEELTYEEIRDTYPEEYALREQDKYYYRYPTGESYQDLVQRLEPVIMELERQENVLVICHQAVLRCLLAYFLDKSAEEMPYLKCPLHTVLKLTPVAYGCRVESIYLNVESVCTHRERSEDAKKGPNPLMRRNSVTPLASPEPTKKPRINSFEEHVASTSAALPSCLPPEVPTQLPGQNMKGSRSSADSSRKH

| Structure (SMILES) | IC50 |
| --- | --- |
| Cc1ccc(O)c(-c2cc(Nc3cnccc3S(C)(=O)=O)cc3nccnc23)c1 [Example 67, 2-{7-[(4-Methanesulfonylpyridin-3-yl)amino]quinoxalin-5-yl}-4-methylphenol] | 1000 to 10000 nM |
| CN(c1cc(-c2ccc3ccn(C)c3c2)c2nccnc2c1)c1cnccc1C#N [Example 91, 3-{Methyl[8-(1-methyl-1H-indol-6-yl)quinoxalin-6-yl]amino}pyridine-4-carbonitrile] | 1000 to 10000 nM |
| Cn1ccc2cc(-c3cc(Nc4cnccc4C#N)cc4nccnc34)ccc21 [Example 28, 3-{[8-(1-Methyl-1H-indol-5-yl)quinoxalin-6-yl]amino}pyridine-4-carbonitrile] | 10000 to 100000 nM |
| Cn1ccc2cc(-c3cc(N4CCc5ccncc54)cc4nccnc34)ccc21 [Example 34, 5-(1-Methyl-1H-indol-5-yl)-7-{1H,2H,3H-pyrrolo[2,3-c]pyridin-1-yl}quinoxaline] | 10000 to 100000 nM |
| CC(=O)N1CCN(c2ccncc2Nc2cc(-c3ccc4ccn(C)c4c3)c3nccnc3c2)CC1 [Example 82, 1-[4-(3-{[8-(1-Methyl-1H-indol-6-yl)quinoxalin-6-yl]amino}pyridin-4-yl)piperazin-1-yl]ethan-1-one] | 1 to 1000 nM |
| CS(=O)(=O)c1ccncc1Nc1cc(-c2ccc(Br)c(F)c2)c2nccnc2c1 [Example 211, 8-(4-Bromo-3-fluorophenyl)-N-(4-methanesulfonylpyridin-3-yl)quinoxalin-6-amine] | 1 to 1000 nM |
| CN1CCN(c2ccncc2Nc2cc(-c3ccc4c(ccn4C)c3)c3nccnc3c2)CC1 [Example 32, 8-(1-Methyl-1H-indol-5-yl)-N-[4-(4-methylpiperazin-1-yl)pyridin-3-yl]quinoxalin-6-amine] | 1000 to 10000 nM |
| Cc1coc2ccc(-c3cc(Nc4cc([N+](=O)[O-])ccc4S(C)(=O)=O)cc4nccnc34)cc12 [Example 103, N-(2-methanesulfonyl-5-nitrophenyl)-8-(3-methyl-1-benzofuran-5-yl)quinoxalin-6-amine] | 1000 to 10000 nM |
| Cn1ccc2ccc(-c3cc(Nc4ncncc4S(C)(=O)=O)cc4nccnc34)cc21 [Example 27, N-(5-Methanesulfonylpyrimidin-4-yl)-8-(1-methyl-1H-indol-6-yl)quinoxalin-6-amine] | 1000 to 10000 nM |
| Cn1ccc2ccc(-c3cc(Nc4ncccc4S(C)(=O)=O)cc4nccnc34)cc21 [Example 81, N-(3-Methanesulfonylpyridin-2-yl)-8-(1-methyl-1H-indol-6-yl)quinoxalin-6-amine] | 1 to 1000 nM |
| Cc1coc2ccc(-c3cc(Nc4cc(N)ccc4S(C)(=O)=O)cc4nccnc34)cc12 [Example 102, 6-Methanesulfonyl-N1-[8-(3-methyl-1-benzofuran-5-yl)quinoxalin-6-yl]benzene-1,3-diamine] | 1 to 1000 nM |
| N#Cc1cnccc1Nc1cc(Cl)c2nccnc2c1 [Example 146, 4-[(8-chloroquinoxalin-6-yl)amino]pyridine-3-carbonitrile] | 10000 to 100000 nM |
| Cn1ccc2ccc(-c3cc(Nc4ccccc4C(=O)O)cc4nccnc34)cc21 [Example 178, 2-{[8-(1-Methyl-1H-indol-6-yl)quinoxalin-6-yl]amino}benzoic acid] | 1 to 1000 nM |
| Cn1ccc2ccc(-c3cc(Nc4cc(-c5ncco5)ccc4S(C)(=O)=O)cc4nccnc34)cc21 [Example 94, N-[2-Methanesulfonyl-5-(1,3-oxazol-2-yl)phenyl]-8-(1-methyl-1H-indol-6-yl)quinoxalin-6-amine] | 1 to 1000 nM |
| CS(=O)(=O)c1ccccc1Nc1cc(-c2ccc3sc(N)nc3c2)c2nccnc2c1 [Example 190, 8-(2-Amino-1,3-benzothiazol-5-yl)-N-(2-methanesulfonylphenyl)quinoxalin-6-amine] | 1 to 1000 nM |
| Cn1ccc2ccc(-c3cc(Nc4c[n+]([O-])ccc4S(C)(=O)=O)cc4nccnc34)cc21 [Example 44, 4-Methanesulfonyl-3-{[8-(1-methyl-1H-indol-6-yl)quinoxalin-6-yl]amino}pyridin-1-ium-1-olate] | 1 to 1000 nM |

More lines, now with the values ahead:

| IC50 | Structure (SMILES) |
| --- | --- |
| 1 to 1000 nM | Cc1csc2ccc(-c3cc(Nc4cnccc4C#N)cc4nccnc34)cc12 [Example 150, 3-{[8-(3-Methyl-1-benzothiophen-5-yl)quinoxalin-6-yl]amino}pyridine-4-carbonitrile] |
| 1 to 1000 nM | Cn1ccc2ccc(-c3cc(Nc4cnccc4S(C)(=O)=O)cc4nccnc34)c(F)c21 [Example 59, 8-(7-Fluoro-1-methyl-1H-indol-6-yl)-N-(4-methanesulfonylpyridin-3-yl)quinoxalin-6-amine] |
| 1 to 1000 nM | Cc1coc2ccc(-c3cc(Nc4cnccc4C(N)=O)cc4nccnc34)cc12 [Example 26, 3-{[8-(3-Methyl-1-benzofuran-5-yl)quinoxalin-6-yl]amino}pyridine-4-carboxamide] |
| 1 to 1000 nM | Cn1ccc2ccc(-c3cc(Nc4cccnc4S(C)(=O)=O)cc4nccnc34)cc21 [Example 6, N-(2-Methanesulfonylpyridin-3-yl)-8-(1-methyl-1H-indol-6-yl)quinoxalin-6-amine] |
| 1000 to 10000 nM | CCc1cccc(-c2cc(Nc3cnccc3S(C)(=O)=O)cc3nccnc23)c1 [Example 65, 8-(3-Ethylphenyl)-N-(4-methanesulfonylpyridin-3-yl)quinoxalin-6-amine] |
| 10000 to 100000 nM | Cn1ccc2ccc(-c3cc(Nc4ncncc4Br)cc4nccnc34)cc21 [Example 204, N-(5-Bromopyrimidin-4-yl)-8-(1-methyl-1H-indol-6-yl)quinoxalin-6-amine] |
| 1000 to 10000 nM | Cn1ccc2ccc(-c3cc(Nc4cnccc4C(=O)NC4CCCCC4)cc4nccnc34)cc21 [Example 126, N-Cyclohexyl-3-{[8-(1-methyl-1H-indol-6-yl)quinoxalin-6-yl]amino}pyridine-4-carboxamide] |
| 1 to 1000 nM | Cn1ccc2ccc(-c3cc(Nc4ccc[nH]c4=O)cc4nccnc34)cc21 [Example 14, 3-{[8-(1-Methyl-1H-indol-6-yl)quinoxalin-6-yl]amino}pyridin-2-ol] |
| 1000 to 10000 nM | CS(=O)(=O)c1ccncc1Nc1cc(-c2ccc3sncc3c2)c2nccnc2c1 [Example 161, 8-(1,2-Benzothiazol-5-yl)-N-(4-methanesulfonylpyridin-3-yl)quinoxalin-6-amine] |
| 1 to 1000 nM | Cc1cc2ccn(C)c2cc1-c1cc(Nc2cnccc2S(C)(=O)=O)cc2nccnc12 [Example 195, 8-(1,5-Dimethyl-1H-indol-6-yl)-N-(4-methanesulfonylpyridin-3-yl)quinoxalin-6-amine] |
| 1000 to 10000 nM | CN(c1cc(-c2ccc3ccn(C)c3c2)c2nccnc2c1)c1cnccc1C(=O)Nc1cncnc1 [Example 125, 3-{Methyl[8-(1-methyl-1H-indol-6-yl)quinoxalin-6-yl]amino}-N-(pyrimidin-5-yl)pyridine-4-carboxamide] |
| 1 to 1000 nM | Cn1ccc2ccc(-c3cc(Nc4cncc5c4OCCN5)cc4nccnc34)cc21 [Example 84, 8-(1-Methyl-1H-indol-6-yl)-N-{2H,3H,4H-pyrido[4,3-b][1,4]oxazin-8-yl}quinoxalin-6-amine] |
| 1 to 1000 nM | CN1CCN(c2ccncc2Nc2cc(-c3ccc4ccn(C)c4c3)c3nccnc3c2)CC1 [Example 40, 8-(1-Methyl-1H-indol-6-yl)-N-[4-(4-methylpiperazin-1-yl)pyridin-3-yl]quinoxalin-6-amine] |
| 1 to 1000 nM | Cn1ccc2ccc(-c3cc(Nc4cnccc4Cl)cc4nccnc34)cc21 [Example 69, N-(4-Chloropyridin-3-yl)-8-(1-methyl-1H-indol-6-yl)quinoxalin-6-amine] |
| 1 to 1000 nM | Cn1ccc2ccc(-c3cc(Nc4cc(C(N)=O)ccc4S(C)(=O)=O)cc4nccnc34)cc21 [Example 116, 4-Methanesulfonyl-3-{[8-(1-methyl-1H-indol-6-yl)quinoxalin-6-yl]amino}benzamide] |
| 10000 to 100000 nM | CS(=O)(=O)c1ccncc1Nc1cc(-c2ccc3occ(CCl)c3c2)c2nccnc2c1 [Example 58, 8-[3-(Chloromethyl)-1-benzofuran-5-yl]-N-(4-methanesulfonylpyridin-3-yl)quinoxalin-6-amine] |
| 1 to 1000 nM | Cc1ccc(C)c(-c2cc(Nc3cnccc3S(C)(=O)=O)cc3nccnc23)c1 [Example 39, 8-(2,5-Dimethylphenyl)-N-(4-methanesulfonylpyridin-3-yl)quinoxalin-6-amine] |
| 1 to 1000 nM | Cn1ccc2ccc(-c3cc(Nc4cnccc4C(=O)O)cc4nccnc34)cc21 [Example 179, 3-{[8-(1-Methyl-1H-indol-6-yl)quinoxalin-6-yl]amino}pyridine-4-carboxylic acid] |
